Laboratory results taken from the supplement of paper PMC13380429.

How the values were obtained:
Conditions in all cases: 72 h
[1] = test system: Caco-2; experiment: cell viability relative to DMSO; higher = less toxic
[2] = test system: Calu-3; experiment: as above
[3] = test system: HepG2; experiment: as above
[4] = test system: U2OS; experiment: as above
[5] = test system: Vero E6; experiment: as above
[6] = test system: Caco-2; experiment: relative viability EC50 (midpoint between 100% and the lowest measured viability); higher = less toxic
[7] = test system: Calu-3; experiment: as above
[8] = test system: HepG2; experiment: as above
[9] = test system: U2OS; experiment: as above
[10] = test system: Vero E6; experiment: as above
[11] = test system: Caco-2; experiment: drug sensitivity score (DSS) for viability; higher = more toxic; extreme values may be limits of the assay
[12] = test system: Calu-3; experiment: as above
[13] = test system: HepG2; experiment: as above
[14] = test system: U2OS; experiment: as above
[15] = test system: Vero E6; experiment: as above

SMILES	cell viability ([1]; 1 nM) [%]	cell viability ([1]; 10 nM) [%]	cell viability ([1]; 100 nM) [%]	cell viability ([1]; 1000 nM) [%]	cell viability ([1]; 10000 nM) [%]	cell viability ([2]; 1 nM) [%]	cell viability ([2]; 10 nM) [%]	cell viability ([2]; 100 nM) [%]	cell viability ([2]; 1000 nM) [%]	cell viability ([2]; 10000 nM) [%]	cell viability ([3]; 1 nM) [%]	cell viability ([3]; 10 nM) [%]	cell viability ([3]; 100 nM) [%]	cell viability ([3]; 1000 nM) [%]	cell viability ([3]; 10000 nM) [%]	cell viability ([4]; 1 nM) [%]	cell viability ([4]; 10 nM) [%]	cell viability ([4]; 100 nM) [%]	cell viability ([4]; 1000 nM) [%]	cell viability ([4]; 10000 nM) [%]	cell viability ([5]; 1 nM) [%]	cell viability ([5]; 10 nM) [%]	cell viability ([5]; 100 nM) [%]	cell viability ([5]; 1000 nM) [%]	cell viability ([5]; 10000 nM) [%]	relative viability EC50 [6] [µM]	relative viability EC50 [7] [µM]	relative viability EC50 [8] [µM]	relative viability EC50 [9] [µM]	relative viability EC50 [10] [µM]	drug sensitivity score [11]	drug sensitivity score [12]	drug sensitivity score [13]	drug sensitivity score [14]	drug sensitivity score [15]
O=C(Nc1ccc(C(=O)O)c(O)c1)c1ccccc1 [benzoylpas]	93	97.5	91.9	97.5	92	94.1	106	97.9	90.3	91.1	93.5	97	97.7	98.6	107	100	102	92.8	95.9	101	99.8	96.8	105	97.4	103	> 10	> 10	> 10	> 10	> 10	0	0	0	0	0
CC(C)(C)CC(C)(C)c1cc(Cc2cc(C(C)(C)CC(C)(C)C)cc(-n3nc4ccccc4n3)c2O)c(O)c(-n2nc3ccccc3n2)c1 [bisoctrizole]	98.6	99.3	97.1	98.9	87.7	88.8	99	90.8	105	103	98.6	108	97.5	98.6	105	96.8	99.7	95.5	99.5	94.4	103	101	96.5	98.1	101	> 10	> 10	> 10	> 10	> 10	0.1	0	0	0	0
COC(=O)N/N=C/c1c[n+]([O-])c2ccccc2[n+]1[O-] [carbadox]	90.4	81.8	92.9	92.1	88.4	93.8	84.8	95.7	105	93.2	110	95.4	96.1	105	110	99.5	97.4	99.2	91.7	98.2	93.7	95.8	88.9	92.6	111	> 10	> 10	> 10	> 10	> 10	0	0	0	0	0
O=C(O)c1ccc2[nH]cc(CCCCN3CC=C(c4ccccc4)CC3)c2c1 [carmoxirole]	106	107	103	91.2	105	98.7	112	92.4	96	90.8	98.4	93	86.7	100	88.3	103	99	96.9	100	101	99.2	100	93.6	102	95.8	> 10	> 10	> 10	> 10	> 10	0	0	0	0	0
CO/N=C(\C(=O)N[C@@H]1C(=O)N2C(C(=O)O)=C(CSc3nc(C)c(CC(=O)O)s3)CS[C@H]12)c1csc(N)n1 [cefodizime]	89.2	89.8	105	100	89.3	98.9	93.5	89.3	86.3	96.8	88.6	105	98.8	97.3	103	96.1	95.5	99.4	97.7	98.9	93.3	95.8	89.4	99.6	106	> 10	> 10	> 10	> 10	> 10	0	0	0	0	0
CCS(=O)(=O)N(C)[C@H]1c2cc(C#N)ccc2OC(C)(C)[C@@H]1O [chromanol-293B-(-)-[3R,4S]]	94.3	93.2	90.4	93.3	88.9	105	99.2	95.5	106	90.6	104	102	91.6	103	98.7	93	93.8	99.1	94.3	95.2	96.6	107	98.2	92.5	110	> 10	> 10	> 10	> 10	> 10	0	0	0	0	0
CC1(COc2ccc(CC3SC(=O)NC3=O)cc2)CCCCC1 (stereo not given) [ciglitazone]	98.7	99.2	99.1	92.9	95.2	104	98.4	92.9	98	102	101	99.8	98.2	108	105	95.3	99.8	102	100	100	94.6	97	92.7	94.1	96.5	> 10	> 10	> 10	> 10	> 10	0	0	0	0	0
O=C(/C=C/c1cccc(F)c1)NC1CC1 [cinflumide]	104	99.9	95.5	99.3	98.1	96.8	91.7	102	99.9	96.4	92.8	101	101	97.7	84.8	98.9	101	91.5	98	99.8	101	98.7	106	102	91.8	> 10	> 10	> 10	> 10	> 10	0	0	0.5	0	0
CCNC(=O)/C=C/c1cccc(Br)c1 [cinromide]	99.1	96.4	105	87.2	92.4	102	101	106	91.5	107	105	96.5	106	97.5	96.8	101	96.7	99	96.3	98.5	110	83.6	97.1	101	95.6	> 10	> 10	> 10	> 10	> 10	0.7	0	0	0	0
COc1cc(/C=C/C(N)=O)cc(OC)c1OC [cintriamide]	83	98.3	96	97.1	99.2	106	97.4	95.6	102	105	97.1	99.6	100	95.1	114	98.2	102	101	102	106	96.3	97.2	95.5	90.2	104	> 10	> 10	> 10	> 10	> 10	0	0	0	0	0
CC(=O)NC1CCSC1=O (stereo not given) [citiolone]	98.8	92.6	97.6	99.7	99.6	103	98.4	93.2	101	110	102	95.8	95.1	109	110	95.4	95.4	101	100	105	99.9	94.7	95.6	102	106	> 10	> 10	> 10	> 10	> 10	0	0	0	0	0
CC(C)(COP(=O)(O)OP(=O)(O)OC[C@H]1O[C@@H](n2cnc3c(N)ncnc32)[C@H](O)[C@@H]1OP(=O)(O)O)[C@@H](O)C(=O)NCCC(=O)NCCS [coenzyme-A]	100	100	102	97.8	110	100	101	96.7	99.8	102	109	96.6	111	96	98.4	96.9	100	103	103	104	108	102	92.4	104	98.9	> 10	> 10	> 10	> 10	> 10	0	0	0	0	0
CN(C)c1ccc(C(=C2C=CC(=[N+](C)C)C=C2)c2ccc(N(C)C)cc2)cc1 [crystal-violet]	86.3	94.9	80.9	21.4	4.4	100	94	104	31.5	2.1	112	89.9	111	10.7	3.6	96.6	100	96.4	17.4	-0.4	96	89.5	100	6.8	-0.4	0.295	0.715	0.432	0.477	0.383	16.9	13.3	15.7	15.6	16.9
CCC(CC)CC1(C(=O)Nc2ccccc2SC(=O)C(C)C)CCCCC1 [dalcetrapib]	99.9	97.1	94.3	93.7	107	96	95.4	103	90	97.8	88.6	103	88	98.6	90.2	96.9	97.1	108	98.3	104	98.4	99.2	101	102	101	> 10	> 10	> 10	> 10	> 10	0	0	0	0	0
